Measurements as given in ChEMBL document CHEMBL1201862, “PubChem BioAssay data set” (2004).
Where a name gives a salt, the structure may show the parent alone.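 Tested at 5 concentrations; 48 h exposure; 96-well plates; endpoints linearly interpolated, else capped at highest concentration. At the GI50, growth is halved.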 The source made the active and inactive calls. Rule as the data show it: active = GI50 up to about 1.1 µM and inactive = higher.

Legend:
Assay in all cases: NCI anticancer screen, dose series, 48 h
[1] = test system: RXF 393
[2] = test system: PC-3
[3] = test system: COLO 205
[4] = test system: HT-29
[5] = test system: IGROV-1
[6] = test system: HCC 2998
[7] = test system: MDA-MB-231
[8] = test system: A498
[9] = test system: KM12
[10] = test system: SF-295
[11] = test system: SK-MEL-5
[12] = test system: SK-MEL-2
[13] = test system: EKVX
[14] = test system: HOP-92
[15] = test system: MOLT-4
[16] = test system: NCI-H23
[17] = test system: RPMI-8226
[18] = test system: HOP-62
[19] = test system: NCI-H522

Measured: GI50

O=C1O/C(=C/c2ccccc2)C(c2ccccc2)=C1O
inactive: [1] 24.3 µM | [2] 29.2 µM | [3] > 100 µM | [4] > 100 µM | [5] 40.6 µM | [6] 41.3 µM | [7] 38.1 µM | [8] 23.1 µM | [9] 59.8 µM | [10] 36.3 µM | [11] 34.4 µM | [12] 17.5 µM | [13] 39.2 µM | [14] 61.5 µM | [15] 53.3 µM | [16] 19 µM | [17] 28 µM | [18] 29.4 µM | [19] 65 µM

C[C@]12CCC3c4ccc(O)cc4CC[C@H]3C1CC(=O)NC2=O (stereo partly specified)
inactive: [1] > 10 µM | [2] > 10 µM | [3] > 10 µM | [4] > 10 µM | [5] > 10 µM | [6] > 10 µM | [7] > 10 µM | [8] > 10 µM | [9] > 10 µM | [10] > 10 µM | [11] > 10 µM | [12] > 10 µM | [14] > 10 µM | [15] > 10 µM | [16] > 10 µM | [17] > 10 µM | [18] > 10 µM

C=C1c2nc3ccccc3n2C=C(c2ccccc2)N1c1ccccc1
inactive: [1] 22.4 µM | [2] 34.3 µM | [3] 52.5 µM | [5] > 100 µM | [6] 12.5 µM | [7] > 100 µM | [8] 65.3 µM | [9] 24.8 µM | [10] 32.1 µM | [11] 17.1 µM | [12] 73.5 µM | [13] > 100 µM | [14] 50.4 µM | [15] 21.4 µM | [16] 33.7 µM | [17] 17.3 µM | [19] 15.8 µM

CC(CN1c2ccccc2Sc2ccccc21)N(C)C (stereo unspecified) [PROMETHAZINE HYDROCHLORIDE]
inactive: [1] 20.8 µM | [2] 15.8 µM | [3] 14.1 µM | [4] 16.4 µM | [5] 20.1 µM | [6] 20.1 µM | [7] 17.9 µM | [8] 19.6 µM | [9] 20.8 µM | [10] 15.4 µM | [11] 21.1 µM | [12] 18 µM | [13] 22.6 µM | [14] 17.1 µM | [15] 19.8 µM | [16] 21.8 µM | [18] 15.2 µM | [19] 19.8 µM
